Values after ≈ are worked out from the molar mass of the structure shown.
How the values were obtained:
[1] = Solubility in pH=7.4 phosphate buffer (saturated solutions); format: physicochemical; details: aqueous buffer
Protocol: (§1) In these examples the general methodology for testing these compounds is as follows. Melting point (M.P.) is assessed using a standard Fisher-Johns apparatus. Quantitative analysis of drug concentrations is carried out using either an enzymatic assay or by high performance liquid chromatography (HPLC). The enzymatic assay is a modification of Maren's micromethod, J. Pharmacol. Exp. Ther., 130:26-29, 1960. Essentially, a reaction volume of 0.8 mL, containing a carbonate/bicarbonate buffer, phenol red, purified carbonic anhydrase, and inhibitor is maintained at 0° degrees and saturation with CO2 by constant bubbling. The time required for acidification to a color change endpoint is monitored as the dependent variable. Carbonic anhydrase inhibitors increase reaction time in proportion to their concentrations over a useful range. The HPLC analysis is performed using reverse phase chromatography (C18) and gradient elution. At a flow rate of 2mL/min, initial mobile phase composition is 95% A, 5% B, where A is 50 mM phosphate buffer, pH=2, and B is CH3 OH. This composition is altered in a linear fashion over 12 minutes to a final composition of 5:95, A:B, v:v. Capacity factor (k') is determined using the relationship k'=([…] -Vo)/Vo where Ve is the elution volume of the analyte of interest and Vo is the void volume of the column. HPLC analysis using photodiode array UV-visible detection (400-200 nm) is also used to assess purity and acquire spectral information.
Solubility is determined by preparing saturated solutions of test compounds in pH=7.4 phosphate buffer followed by analysis of the solution for compound concentration.

[2] = Corneal permeability rate constant (kin) across freshly excised bovine corneas in vitro; accession rate; format: in vitro ADME; details: for kin (corneal permeability rate constant): excised bovine corneas, in vitro
Protocol: as §1
(§2) Corneal permeability rate constants (kin) are determined in an in vitro system. Freshly excised bovine corneas are placed on 8 mm tissue culture wells (epithelial surface down) filled with tissue culture medium containing test compound. The well formed by the curvature of the cornea is filled with drug-free medium. Samples of medium are taken from the endothelial side for determination of drug concentrations. The rate constant for drug appearance is kin. Enzyme inhibition is assessed by determination of KI versus carbonic anhydrase II using the enzymatic method. Accession rate is the product of kin and maximum buffer solubility. This is a useful estimate of delivery rate of drug to the anterior chamber of the eye following topical administration.

[3] = system: intraocular pressure (IOP); experiment: Ocular hypotensive effects following topical administration (Table 2); format: in vivo, New Zealand white rabbits; details: IOP lowering; for Maximum Topical Effect: one eye, contralateral eye vehicle
Protocol: B.2 Ocular Hypotensive Effects Following Topical Administration
IOP was determined using rabbits familiarized with the Alcon pneumotonometric measurement employed. Drugs were dissolved or suspended in 0.9% saline or a 1% hydroxypropylmethyl-cellulose gel and instilled into one eye. The contralateral eye received the vehicle only, thereby serving as a control. Initial screening was accomplished using measurements every 15-30 minutes for 5-6 hours. Statistical analysis wa then performed using Student's t-test for paired data (two-tailed).

[4] = oral administration; cited from earlier work
[5] = target: carbonic anhydrase II (Homo sapiens, UniProt P00918); experiment: Enzyme inhibition, KI versus carbonic anhydrase II (enzymatic micromethod); format: biochemical; details: 0°
Protocol: as §1, with “Carbonic anhydrase inhibitors increase reaction time in proportion to their concentrations over a useful range.” left out
as §2, with “solubility.” for “solubility. This is a useful estimate of delivery rate of drug to the anterior chamber of the eye following topical administration.”

[6] = Partition coefficients (PC), organic solvent : pH=7.4 phosphate buffer; format: physicochemical; details: for PC (CHCl3 : buffer): chloroform : pH=7.4 phosphate buffer; for PC (ether: buffer): diethyl ether : pH=7.4 phosphate buffer
Protocol: as §1
Partition coefficients (PC) are determined by dissolving test compound in pH=7.4 phosphate buffer (saturated with the appropriate organic solvent) or organic solvent (diethyl ether or chloroform) saturated with buffer. Equal volumes of organic and aqueous solutions are added to test tubes which are then capped and mixed by inversion until equilibrium is achieved. The ratio of drug concentration organic: aqueous is the partition coefficient.

[7] = system: intraocular pressure (IOP); experiment: Ocular hypotensive effects following systemic administration (Table 1); format: in vivo, New Zealand albino rabbits; details: subcutaneous, 225 μmol in corn oil, mean (S.D.)
Protocol: B.1 Ocular Hypotensive Effects Following systemic Administration
Compounds are dissolved in corn oil and injected subcutaneously into New Zealand albino rabbits. […] Injection time is defined as t=0. […] Values shown are IOP in mm Hg represented as the mean (S.D.) of n replications. Data are analyzed using Student's t-test for unpaired data. For time points marked with asterisks, p<0.05, which is taken to indicate a difference from vehicle treated controls.

[8] = topical CAI, IOP lowering; cited from earlier work

| Structure (SMILES) | solubility [1] [mM] | accession rate [2] [µM/h] | kin (corneal permeability rate constant) [2] [h⁻¹] | Ki [5] [nM] | PC (CHCl3 : buffer) [6] | Duration [3] [h] | Time to Peak effect [3] [min] | Maximum Topical Effect [3] | also measured |
| --- | --- | --- | --- | --- | --- | --- | --- | --- | --- |
| NS(=O)(=O)c1nnc(N2C(=O)CCC2=O)s1 [Example 2, Succinylimidazolamide] | 10 (≈ 2620 µg/mL) | 21 | 0.0021 |  |  | 2 | 30 | -2.3 ± 1.7 mm Hg |  |
| CC(=O)Nc1nnc(S(N)(=O)=O)s1 [acetazolamide, 2-acetylamino-1,3,4-thiadiazole-5-sulfonamide] |  |  |  |  |  |  |  |  | decrease of IOP [4]: shown to decrease IOP following oral administration |
| CCOC(=O)CCCCC(=O)Nc1nnc(S(N)(=O)=O)s1 [Compound 8, ethyladipoylazolamide] |  |  |  |  |  | 2 | 30 | approx. -1.0 mm Hg |  |
| Nc1ccc2nc(S(N)(=O)=O)sc2c1 [aminozolamide] |  |  |  |  |  |  |  |  | effectiveness in clinical trial [8]: partially effective in clinical trial |

Second part, led by results:

| solubility [1] [mM] | accession rate [2] [µM/h] | kin (corneal permeability rate constant) [2] [h⁻¹] | Ki [5] [nM] | PC (CHCl3 : buffer) [6] | Structure (SMILES) | Duration [3] [h] | Time to Peak effect [3] [min] | Maximum Topical Effect [3] | also measured |
| --- | --- | --- | --- | --- | --- | --- | --- | --- | --- |
| 1 (≈ 260 µg/mL) | 10.8 | 0.0108 | 12 |  | NS(=O)(=O)c1nnc(N2C(=O)C=CC2=O)s1 [Example 3, Maleimidiazolamide] | 3 | 60 | -2.0 ± 0.5 mm Hg |  |
|  | 309 |  | 32 | 0.23 | CCOC(=O)C(=O)Nc1nnc(S(N)(=O)=O)s1 [Example 5, Ethyloxaloylazolamide] | ≥ 5 | 75 | -3.0 ± 0.7 mm Hg | solubility ([1]; unit nm [sic]): 91 mM (≈ 25500 µg/mL); PC (ether: buffer) [6]: 0.3; IOP ([7]; t=0 min): 18.4(1.9) mm Hg; IOP ([7]; t=20 min): 17.5(2.1) mm Hg; IOP ([7]; t=45 min, * p<0.05 vs vehicle): 15.0(2.6) mm Hg; IOP ([7]; t=60 min, * p<0.05 vs vehicle): 14.5(2.2) mm Hg; IOP ([7]; t=75 min, * p<0.05 vs vehicle): 14.6(5.1) mm Hg; IOP ([7]; t=90 min, * p<0.05 vs vehicle): 17.8(1.7) mm Hg; IOP ([7]; t=110 min, * p<0.05 vs vehicle): 17.3(2.2) mm Hg; IOP ([7]; t=150 min, * p<0.05 vs vehicle): 18.3(1.3) mm Hg |
| 5.8 (≈ 1790 µg/mL) | 91 | 0.0155 |  | 1.24 | CCOC(=O)CCC(=O)Nc1nnc(S(N)(=O)=O)s1 [Example 6, Ethylsuccinylazolamide] |  |  |  | PC (ether: buffer) [6]: 0.35; IOP ([7]; t=0 min): 18.3(1.0) mm Hg; IOP ([7]; t=20 min): 17.5(2.0) mm Hg; IOP ([7]; t=45 min, * p<0.05 vs vehicle): 15.4(2.1) mm Hg; IOP ([7]; t=60 min, * p<0.05 vs vehicle): 13.7(1.6) mm Hg; IOP ([7]; t=75 min, * p<0.05 vs vehicle): 12.4(1.9) mm Hg; IOP ([7]; t=90 min, * p<0.05 vs vehicle): 15.1(2.0) mm Hg; IOP ([7]; t=110 min, * p<0.05 vs vehicle): 15.0(1.8) mm Hg; IOP ([7]; t=150 min, * p<0.05 vs vehicle): 16.6(1.6) mm Hg |
| 0.5 (≈ 154 µg/mL) |  |  |  |  | NS(=O)(=O)c1nnc(NC(=O)CCCCC(=O)O)s1 [Example 8] |  |  |  |  |
| > 700 | ≤ 21 | 3e-05 | 8 |  | NS(=O)(=O)c1nnc(N2C(=O)C(O)C(O)C2=O)s1 (stereo not drawn) [Example 4, Dihydroxysuccinimidazolamide] | ≥ 6 | 60 | -4.0 ± 0.7 mm Hg |  |
| 0.2 (≈ 67.3 µg/mL) | 26 | 0.0512 |  | 3.03 | CCOC(=O)CCCCC(=O)Nc1nnc(S(N)(=O)=O)s1 [Example 7] |  |  |  | Ki ([5]; unit inferred): 60 nM |
